In brackets after ≈: the same amount, converted by molar mass. Read-outs that look alike come from different tables or passages of the source.
Tests used:
JNK1 [1] = biological target: T1, JNK1 (Homo sapiens, UniProt P45983); experiment: JNK1 kinase (intrinsic ATPase, Kinase-Glo) assay; assay type: biochemical
Procedure: JNK1, JNK2, and JNK3 hydrolyze ATP to ADP without any peptide substrates. This allows a very robust and fast endpoint assay where the remaining concentration of ATP is measured (BMG ClarioStar Plus plate reader) using the Kinase-Glo Assay kit from Promega (V6711). A luminescence signal is measured, which is produced by the catalytic conversion of beetle luciferin to oxyluciferin by luciferase. Potential inhibition of luciferase (i.e., false negatives) is easily detected, because assays without kinase are always included, and less ATP than is present in this control reaction could also indicate an inhibition of luciferase, which can be excluded by a counter screen with only luciferase.
To mitigate violation of the linear initial velocity principle, which is a problem in end-point assays when doing dose-responses, the enzyme concentration was carefully optimized, in a total assay volume of 25 μL. […] The kinase reaction was done for 30 or 60 min at 30° C., and detection of leftover ATP was measured according to Promega's protocol. […] Fractional activities were obtained from normalized data. Non-linear regression (GraphPad Prism7) and a modified Morrison equation for tight binding was used to determine apparent Ki values for inhibitors, assuming no particular mode of inhibition. An orthogonal binding assay (LanthaScreen) was outsourced to ThermoFisher Scientific's SelectScreen Services to determine IC50 values.

JNK2 [2] = biological target: T2, JNK2 (Homo sapiens, UniProt P45984); experiment: JNK2 kinase (intrinsic ATPase, Kinase-Glo) assay; assay type: biochemical
JNK3 [3] = biological target: T3, JNK3 (Homo sapiens, UniProt P53779); experiment: JNK3 kinase (intrinsic ATPase, Kinase-Glo) assay; assay type: biochemical
JNK1 [4] = biological target: T1, JNK1; experiment: Promega NanoBRET intracellular target engagement (tracer K10 displacement), JNK1; assay type: cell-based
JNK2 [5] = biological target: T2, JNK2; experiment: Promega NanoBRET intracellular target engagement (tracer K10 displacement), JNK2; assay type: cell-based
JNK3 [6] = biological target: T3, JNK3; experiment: Promega NanoBRET intracellular target engagement (tracer K10 displacement), JNK3; assay type: cell-based
[7] = In vitro metabolism in mouse liver microsomes; details: for half-life: mouse, microsomes
Procedure: (§1) The target product profile seeks to deliver JNK inhibitor as a once daily oral administration. To prioritize compounds for further development, in vitro metabolism of several CDD JNK inhibitors were determined to approximate the plasma half-life and the rate of metabolism of the compounds in vivo.

[8] = In vitro metabolism in human liver microsomes; details: human, microsomes
Procedure: as §1

T2 sequence (P45984 whole entry): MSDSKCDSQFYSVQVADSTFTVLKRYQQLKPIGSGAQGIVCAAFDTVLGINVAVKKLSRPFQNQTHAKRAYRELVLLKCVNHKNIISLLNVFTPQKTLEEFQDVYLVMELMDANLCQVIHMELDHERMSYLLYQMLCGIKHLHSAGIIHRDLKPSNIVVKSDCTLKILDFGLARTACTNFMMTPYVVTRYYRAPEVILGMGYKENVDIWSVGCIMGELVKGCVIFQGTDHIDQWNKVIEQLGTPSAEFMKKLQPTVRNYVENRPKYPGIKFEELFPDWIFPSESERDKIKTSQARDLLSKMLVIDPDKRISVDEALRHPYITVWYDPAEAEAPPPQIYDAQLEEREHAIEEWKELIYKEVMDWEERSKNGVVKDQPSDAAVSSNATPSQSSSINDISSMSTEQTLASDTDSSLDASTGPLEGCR
T1 sequence (P45983 whole entry): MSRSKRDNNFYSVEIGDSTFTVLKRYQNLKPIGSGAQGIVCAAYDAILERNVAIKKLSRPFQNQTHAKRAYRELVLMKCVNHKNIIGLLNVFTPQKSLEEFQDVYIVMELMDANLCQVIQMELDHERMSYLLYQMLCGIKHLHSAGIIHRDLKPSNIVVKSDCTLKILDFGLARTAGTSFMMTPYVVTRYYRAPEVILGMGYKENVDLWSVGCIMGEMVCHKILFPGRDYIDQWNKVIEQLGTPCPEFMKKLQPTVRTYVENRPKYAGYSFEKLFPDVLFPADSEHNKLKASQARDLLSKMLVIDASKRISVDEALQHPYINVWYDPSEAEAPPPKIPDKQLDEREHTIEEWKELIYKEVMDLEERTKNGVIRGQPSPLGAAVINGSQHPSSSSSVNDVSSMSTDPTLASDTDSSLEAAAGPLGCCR
T3 sequence (P53779 whole entry): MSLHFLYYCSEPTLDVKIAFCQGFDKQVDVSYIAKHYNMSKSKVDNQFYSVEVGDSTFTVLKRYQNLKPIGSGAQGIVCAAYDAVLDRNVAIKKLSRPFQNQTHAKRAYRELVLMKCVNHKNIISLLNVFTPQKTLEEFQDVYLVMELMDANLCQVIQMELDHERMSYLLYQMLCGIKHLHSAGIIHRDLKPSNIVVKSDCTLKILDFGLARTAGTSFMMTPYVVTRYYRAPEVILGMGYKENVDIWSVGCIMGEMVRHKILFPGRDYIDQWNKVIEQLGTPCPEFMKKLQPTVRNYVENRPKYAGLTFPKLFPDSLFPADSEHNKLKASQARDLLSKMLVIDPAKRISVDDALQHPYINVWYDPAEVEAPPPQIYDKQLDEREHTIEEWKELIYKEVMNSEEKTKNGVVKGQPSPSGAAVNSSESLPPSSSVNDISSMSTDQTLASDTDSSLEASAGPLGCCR

Row | SMILES | Kd (JNK1 [1]) | Kd (JNK2 [2]; Table 3a, read-out: Kd JNK2) | Kd (JNK3 [3]; Table 3a, read-out: Kd JNK3) | IC50 (JNK1 [4]) | IC50 (JNK2 [5]) | IC50 (JNK3 [6]) | solubility (Solubility) | half-life [7] | half-life [8] | Kd (JNK2 [2]) | Kd (JNK3 [3]) | metabolism in liver microsomes ([7]; liver microsomes, in words)
1 | Cc1ccc(NC(=O)c2ccn3ncc(-c4cnc5[nH]ccc5c4)c3c2)cc1 [CDD-2288, 3-(1H-pyrrolo[2,3-b]pyridin-5-yl)-N-(p-tolyl)pyrazolo[1,5-a]pyridine-5-carboxamide] | 0.36 ± 0.11 nM | 1.63 ± 0.14 nM | 1.41 ± 0.07 nM | 830 nM | 900 nM | 1500 nM | 1 µM (≈ 0.367 µg/mL) |  |  |  |  | 
2 | Cc1ccc(NC(=O)c2ccn3ncc(-c4cncc5ccccc45)c3c2)cc1 [CDD-2325, 3-(isoquinolin-4-yl)-N-(p-tolyl)pyrazolo[1,5-a]pyridine-5-carboxamide] | 0.28 ± 0.12 nM | 1.27 ± 0.14 nM | 1.18 ± 0.09 nM | 1400 nM | 890 nM | 1200 nM | 2.3 µM (≈ 0.87 µg/mL) | 31 min | 7.7 min |  |  | 
3 | CNC(=O)c1ccn2ncc(-c3cnc4[nH]ccc4c3)c2c1 [CDD-2574, N-methyl-3-(1H-pyrrolo[2,3-b]pyridin-5-yl)pyrazolo[1,5-a]pyridine-5-carboxamide] | 1.69 ± 0.39 nM | 12.5 ± 0.68 nM | 6.56 ± 0.85 nM | 7300 nM | 5400 nM | 5900 nM | 11.1 µM (≈ 3.23 µg/mL) | 7.5 min | 36.5 min |  |  | 
4 | CNC(=O)c1cc2c(-c3cnc4[nH]ccc4c3)cccc2s1 [CDD-2627, N-methyl-4-(1H-pyrrolo[2,3-b]pyridin-5-yl)benzo[b]thiophene-2-carboxamide] | 3.74 ± 0.93 nM | 14.8 ± 0.95 nM | 9 ± 2.4 nM | 14800 nM | 6100 nM | 23000 nM | 40.3 µM (≈ 12.4 µg/mL) |  |  |  |  | 
5 | O=C(Nc1cccc(C(=O)N2CCCCC2)c1)c1cc2c(-c3cnc4[nH]ccc4c3)cccc2s1 [CDD-2630, N-(3-(piperidine-1-carbonyl)phenyl)-4-(1H-pyrrolo[2,3-b]pyridin-5-yl)benzo[b]thiophene-2-carboxamide] | 0.68 ± 0.08 nM | 2.47 ± 0.25 nM | 1.63 ± 0.26 nM | 430 nM | 230 nM | 149 nM | 1.6 µM (≈ 0.769 µg/mL) | 3.5 min | 18.2 min |  |  | 
6 | COc1ccc(NC(=O)c2cc3c(-c4cnc5[nH]ccc5c4)cccc3s2)cc1C(=O)N1CCOCC1 [CDD-2635, N-(4-methoxy-3-(morpholine-4-carbonyl)phenyl)-4-(1H-pyrrolo[2,3-b]pyridin-5-yl)benzo[b]thiophene-2-carboxamide] | 0.16 ± 0.05 nM | 1.54 ± 0.13 nM | 0.76 ± 0.22 nM | 186 nM | 325 nM | 160 nM | 2.6 µM (≈ 1.33 µg/mL) | 28.6 min | 74.6 min |  |  | 
7 | COc1ccc(NC(=O)c2cc3c(-c4cnc5[nH]ccc5c4)cccc3s2)cc1C(=O)N1CCN(C)CC1 [CDD-2636, N-(4-methoxy-3-(4-methylpiperazine-1-carbonyl)phenyl)-4-(1H-pyrrolo[2,3-b]pyridin-5-yl)benzo[b]thiophene-2-carboxamide] | 0.57 ± 0.1 nM | 1.93 ± 0.14 nM | 0.54 ± 0.09 nM | 1200 nM | 820 nM | 1200 nM | 4.9 µM (≈ 2.58 µg/mL) | 16.3 min | 16 min |  |  | 
8 | COc1ccc(NC(=O)c2cc3c(-c4cnc5[nH]cc(C)c5c4)cccc3s2)cc1C(=O)N(C)C [CDD-2731, N-(3-(dimethylcarbamoyl)-4-methoxyphenyl)-4-(3-methyl-1H-pyrrolo[2,3-b]pyridin-5-yl)benzo[b]thiophene-2-carboxamide] | 0.17 ± 0.05 nM | 1.28 ± 0.15 nM | 0.81 ± 0.05 nM | 156 nM | 156 nM | 124 nM | 3.2 µM (≈ 1.55 µg/mL) | 31.8 min | 115 min |  |  | rapidly metabolized
9 | CN(C)C(=O)c1cc(NC(=O)c2cc3c(-c4cnc5[nH]ccc5c4)cccc3o2)ccc1O [CDD-2855, N-(3-(dimethylcarbamoyl)-4-hydroxyphenyl)-4-(1H-pyrrolo[2,3-b]pyridin-5-yl)benzofuran-2-carboxamide] | 1.52 ± 0.15 nM | 12.2 ± 1.3 nM | 2.68 ± 0.2 nM | 4910 nM | 4200 nM | 5300 nM |  | 115 min | 206 min |  |  | 
10 | CN(C)C(=O)c1cc(O)cc(NC(=O)c2cc3c(-c4cnc5[nH]ccc5c4)cccc3s2)c1 [CDD-2937, N-(3-(dimethylcarbamoyl)-5-hydroxyphenyl)-4-(1H-pyrrolo[2,3-b]pyridin-5-yl)benzo[b]thiophene-2-carboxamide] | 0.28 ± 0.05 nM | 4.53 ± 0.55 nM | 1.67 ± 0.06 nM | 1600 nM | 1460 nM | 1130 nM |  | 58 min | 193 min |  |  | 
11 | CN(C)C(=O)c1ccc(O)c(NC(=O)c2cc3c(-c4cnc5[nH]ccc5c4)cccc3s2)c1 [CDD-2938, N-(5-(dimethylcarbamoyl)-2-hydroxyphenyl)-4-(1H-pyrrolo[2,3-b]pyridin-5-yl)benzo[b]thiophene-2-carboxamide] | 4.6 ± 1.9 nM | 1.22 ± 0.27 nM | 1.41 ± 0.3 nM | 11500 nM | 16100 nM | 15400 nM | 5.4 µM (≈ 2.47 µg/mL) | 24 min | 24.3 min |  |  | 
12 | CN(C)C(=O)c1cc(NC(=O)c2cc3c(-c4cnc5[nH]ncc5c4)cccc3s2)ccc1O [CDD-3018, N-(3-(dimethylcarbamoyl)-4-hydroxyphenyl)-4-(1H-pyrazolo[3,4-b]pyridin-5-yl)benzo[b]thiophene-2-carboxamide] | 3.58 ± 0.47 nM | 11.4 ± 1 nM | 5.17 ± 0.33 nM |  | 10900 nM | 31700 nM | 1.5 µM (≈ 0.686 µg/mL) | 58.8 min | 531 min |  |  | 

More lines, in order of falling Kd (JNK1 [1]), values ahead:

Row | Kd (JNK1 [1]) | Kd (JNK2 [2]; Table 3a, read-out: Kd JNK2) | Kd (JNK3 [3]; Table 3a, read-out: Kd JNK3) | IC50 (JNK1 [4]) | IC50 (JNK2 [5]) | IC50 (JNK3 [6]) | solubility (Solubility) | half-life [7] | half-life [8] | Kd (JNK2 [2]) | Kd (JNK3 [3]) | metabolism in liver microsomes ([7]; liver microsomes, in words) | SMILES
13 | 3.1 ± 0.8 nM | 3.08 ± 0.16 nM | 4.34 ± 0.6 nM | 66000 nM | 13500 nM | 34800 nM | 124 µM (≈ 49.2 µg/mL) | 126 min | 119 min |  |  |  | CNCc1ccc(NC(=O)c2ccc3ncc(-c4cnc5[nH]ccc5c4)n3c2)cc1 [CDD-2488, N-(4-((methylamino)methyl)phenyl)-3-(1H-pyrrolo[2,3-b]pyridin-5-yl)imidazo[1,2-a]pyridine-6-carboxamide]
14 | 1.62 ± 0.31 nM |  |  | 702 nM | 780 nM | 1140 nM |  | 68.9 min | 273 min | 9.09 ± 0.53 nM | 3.2 nM |  | NC(=O)c1cccc(NC(=O)c2cc3c(-c4cnc5[nH]ccc5c4)cccc3s2)c1 [CDD-2936, N-(3-carbamoylphenyl)-4-(1H-pyrrolo[2,3-b]pyridin-5-yl)benzo[b]thiophene-2-carboxamide]
15 | 1.52 ± 0.3 nM |  |  | 6300 nM | 2000 nM | 29300 nM | 0.4 µM (≈ 0.183 µg/mL) |  |  | 5.37 ± 0.42 nM | 3.53 nM |  | CNC(=O)c1cc(NC(=O)c2cc3c(-c4cnc5[nH]ccc5c4)cccc3s2)ccc1OC [CDD-2490, N-(4-methoxy-3-(methylcarbamoyl)phenyl)-4-(1H-pyrrolo[2,3-b]pyridin-5-yl)benzo[b]thiophene-2-carboxamide]
16 | 1.2 ± 0.16 nM | 6.5 ± 0.63 nM | 1.93 ± 0.14 nM | 1000 nM | 1000 nM | 781 nM |  | 20.1 min | 55.1 min |  |  |  | Cc1ccc(NC(=O)c2cc3c(-c4cnc5[nH]ccc5c4)cccc3s2)cc1C(=O)N(C)C [CDD-2729, N-(3-(dimethylcarbamoyl)-4-methylphenyl)-4-(1H-pyrrolo[2,3-b]pyridin-5-yl)benzo[b]thiophene-2-carboxamide]
17 | 0.52 ± 0.12 nM | 4.84 ± 0.49 nM | 2.08 ± 0.18 nM | 3800 nM | 3600 nM | 6000 nM | 2 µM (≈ 0.883 µg/mL) | 66.7 min | 548 min |  |  |  | CN(C)C(=O)c1cc(NC(=O)c2cc3c(-c4cnc5[nH]ccc5c4)cccc3s2)ccn1 [CDD-3012, 4-(4-(1H-pyrrolo[2,3-b]pyridin-5-yl)benzo[b]thiophene-2-carboxamido)-N,N-dimethylpicolinamide]
18 | 0.39 ± 0.12 nM | 2.23 ± 0.12 nM | 2.7 ± 0.29 nM | 254 nM | 228 nM | 235 nM |  | 131 min | 358 min |  |  |  | Cc1c[nH]c2ncc(-c3cccc4sc(C(=O)Nc5ccc(O)c(C(=O)N(C)C)c5)cc34)cc12 [CDD-3017, N-(3-(dimethylcarbamoyl)-4-hydroxyphenyl)-4-(3-methyl-1H-pyrrolo[2,3-b]pyridin-5-yl)benzo[b]thiophene-2-carboxamide]

From patent US20260294922A1, “Inhibitors of JUN N-Terminal Kinases (JNK1, JNK2, and/or JNK3) and Mitogen-Activated Protein Kinases (MAPK8, MAPK9, and/or MAPK10) and Methods of Using Same” (Baylor College of Medicine, priority 2023, published 2026)
